For one data set, the system named is HCV-RNA. Kind of data set: In vitro anti-HCV activity, quantitative determination of HCV-RNA. The format is cell-based, hepatitis C virus (HCV). The conditions noted are these: for levels of HCV-RNA: control 0 μg/mL: Exp 1 5.3 × 10^2, Exp 2 4.0 × 10^2. How it is done:
HCV replication cells (Avva.5) were cultivated in Dulbecco's modified Eagle medium containing 10% fetal calf serum and 1 mg/mL G418. 293-Sip-L cells were cultivated in Dulbecco's modified Eagle medium containing 10% fetal calf serum, 250 μg/mL G418 and 150 μg/mL hygromycin B.
Cells in a Φ60 mm Petri dish were incubated in positive medium containing 100 μL HCV for 12 h, then in fresh medium free of HCV that was replaced every day. When being tested for HCV-RNA seven days after the infection, cells were trypsinized and washed with Dulbecco's modified Eagle medium twice through a centrifugation method. The upper layer from the second wash (as a control) and the washed cells were collected in pairs and used for RNA extraction and RT-PCR test. The β-actin mRNA was determined simultaneously as a control.
The quantitative determination of HCV-RNA was performed using automatic PCR enzyme-linked immunoassay (version 2.0, Roche Diagnostics, Branchburg, N.J.).
The levels of HCV-RNA were determined using automatic PCR enzyme-linked immunoassay.

The subject of data set [1] is human lymphoma Raji cells. Kind of data set: Inhibition of cell growth by MTT reduction. Type of data set: cell-based. The conditions noted are these: read-out: Inhibitory activity, IC50. The procedure:
Cell culturing: Raji cells in RPMI1640 culture solution containing 10% fetal calf serum were incubated in an incubator at 37° C. with 5% CO2 for 2-3 days. Cells in logarithmic growth phase were used for the experiment.
Cells in logarithmic growth phase were taken and after the cell density was adjusted to 5×10^4 cells/mL, they were seeded to three 96-well plates separately, 100 μL per well. The culture solution was replaced after 24 h cell culturing. […] The blank group (for zeroing) was only added with RPMI1640 culture solution containing 10% fetal calf serum and no cell was added. The control group was added with an equal volume of RPMI1640 culture solution containing 10% fetal calf serum. Each group had 5 replicates. After cells were incubated for 24 h, 48 h and 72 h separately, 20 μL MTT solution (5 mg/mL) was added to each well followed by a 4 h incubation. The supernatant was removed by sucking it out and discarded. 150 μL DMSO was added per well, vortexed about 5 min to mix evenly. After the crystal was completely dissolved, the absorption (A) value at 570 nm of each well was tested within 20 min on enzyme-linked immuno analyzer. The experiment was repeated 3 times and the average was taken to calculate the inhibition rate of cell growth by the following equation. Inhibition rate of cell growth=(1−average A value of experimental group/average A value of control group)×100%
For orientation: Formazan colour is commonly taken as a measure of viable cells.

Data set [2] can be described thus: MTT test of cytotoxicity on HepG2.2.15 cells. The format is cell-based. The conditions noted are these: human, read-out: CC50 (μM) (HepG2. 2. 15). How it is done: (§1) A tube of frozen HepG2.2.15 cells taken from a liquid nitrogen tank was quickly placed into a water bath at 42° C. and shaken to thaw. DMEM complete medium (fetal bovine serum 10%, G418 380 μg/mL, Penicillin 100 U/ml, Streptomycin 100 U/ml) was used for cell culturing at conditions of 37° C. and 5% CO2. The number of cell passage in normal growing cells was once per 2-3 days.
Cytotoxicity of the compound on HepG2.2.15 cells was tested with the MTT colorimetric assay established by Mosmann. After continuous incubation for 72 h, 10 μL MTT was added to each well. Four hours later, the supernatant was discarded and 200 μL DMSO was added to each well. The OD value in each well was read using a microplate reader (measurement wavelength 490 nm, reference wavelength 630 nm). The result was recorded and the percentage inhibition of HepG2.2.15 cells by each compound was calculated:
The half toxic concentration (TC50) of the medicament on cells was calculated according to the percentage inhibition of the cell by the medicament.

Data set [3] is described as follows: MTS test of effects of the compound on cell survival. The format is cell-based. To be noted: human, 293T cells. How it is done:
Then, 20 μL freshly prepared mixture of MTS/PMS was added to each well and after 4 h incubation in the incubator at 37° C. with 5% CO2, the color was developed. The light absorption (OD) of each well at wavelengths 490 nm and 650 nm (background) was detected on an enzyme linked immuno analyzer, and the survival rate of cells was calculated.

The next data set has as its system VSVG/HIV-luc (NL4-3). Kind of data set: microbe, parasite or virus in culture. The format is cell-based, HIV-1. To be noted: Human immunodeficiency virus 1, NL43, HEK-293T; for EC50: 48 h, read-out: EC50 (μM) VSVG/HIV-luc (NL4-3).
A further data set deals with HBsAg. Briefly: In vitro inhibition of HBV: HBsAg in HepG2.2.15 cells by ELISA. Type of data set: cell-based. To be noted: Hepatitis B virus, HepG2.2.15, read-out: IC50 (μM) (HBsAg). How it is done:
as §1
(§2) The effect of a compound on HBV surface antigen s and antigen e in the cell culture was detected using a screening concentration lower than the half toxic concentration of the compound. HepG2.2.15 cells in logarithmic growth phase were selected and digested with trypsin into single cell suspension, and were seeded to a 24-well plate at a concentration of 2×10^4/mL, 1 mL per well. Media of different medicament concentrations were added, three wells for each concentration, and cells added with complete medium were set as normal control. Cell supernatants and cells at day 3, day 6 and day 9 were collected and kept under −20° C. The intracellular and extracellular expressions of e antigen and surface antigen at day 3, day 6 and day 9 were determined by ELISA.
(§3) 2.4 Effect of the Compound on HBeAg and HBsAg in HepG2.2.15 Cell Supernatant Detected by ELISA
(§4) The instructions of the kit were followed;
(§5) Measurement: OD value of each well was read from microplate reader using dual wavelength 450/630 nm.
(§6) Result determination: The Cutoff value was first calculated according to equation: COV=average OD of negative control×2.1. Then, if a sample had OD≧COV, the result was determined as positive, or if a sample had OD≦COV, the result was determined as negative.

The test system of a further data set is HBeAg. Briefly: In vitro inhibition of HBV: HBeAg in HepG2.2.15 cells by ELISA. The format is cell-based. To be noted: Hepatitis B virus, HepG2.2.15, read-out: IC50 (μM) (HBeAg). How it is done: as §1, §2, §3, §4, §5, §6

Experimental findings from patent US9422321B2, “Pyrimidine nucleoside derivatives, synthesis methods and uses thereof for preparing anti-tumor and anti-virus medicaments” (High & New Technology Research Center, Henan Academy of …, priority 2010, dated 2016) are described below.

Where “and” joins values, the source holds several entries; their conditions need not be identical. Equal entries are not always repeated.

Take `[N-]=[N+]=N[C@]1(CO)O[C@@H](n2ccc(NCCN)nc2=O)C(F)C1O` (stereo partly shown) [Compound 5-02]: the “levels of HCV-RNA” value in the data set on HCV-RNA (0.06 μg/mL in the culture) is 4.5 × 10^2 and 4.2 × 10^2; with HCV-RNA (0.6 μg/mL in the culture), 0.90 × 10^2 and 0.70 × 10^2; with HCV-RNA (6 μg/mL in the culture), 1.0 × 10^2 and 0.80 × 10^2. Moreover, in the data set with HCV-RNA (concentrations 6, 0.6 and 0.06 μg/mL), the “inhibitory effect on HCV” value is given as “exhibited inhibitory effect”. The IC50 in data set [1] was determined as 45 µM; with HBsAg it was 8.05 µM. Also, the CC50 at 72 h in data set [2] is at least 25 µM. Also, the CC50 at 44 h in data set [3] was at least 25 µM. For the same compound, in the data set on VSVG/HIV-luc (NL4-3), the EC50 was found to be 0.093 ± 0.067 µM.

On to `[N-]=[N+]=N[C@]1(CO)O[C@@H](n2ccc(NO)nc2=O)C(F)C1O` (stereo partly shown) [Compound 5-17], for which the CC50 at 72 h in data set [2] came out at 951 µM. Besides, the CC50 at 44 h in data set [3] was at least 25 µM. The EC50 with VSVG/HIV-luc (NL4-3) came out at 0.7 ± 0.2 µM. Also, the IC50 in the data set with HBeAg was determined as 0.11 µM; in the data set on HBsAg, 0.07 µM.

As to `[N-]=[N+]=N[C@]1(CO)O[C@@H](n2ccc(N(CCO)CCO)nc2=O)C(F)C1O` (stereo partly shown) [Compound 5-19], the values for the IC50 (in data set [1]; in the data set on HBsAg) were 1.6 µM and 0.009 µM, respectively. Further, in data set [2], the half-maximal cytotoxic concentration (CC50) at 72 h is above 1250 µM. Besides, the CC50 at 44 h in data set [3] was at least 25 µM. In addition, in the data set on VSVG/HIV-luc (NL4-3), the EC50 amounted to 0.8 ± 0.7 µM.

For the compound `CNc1ccn([C@@H]2O[C@@](CO)(N=[N+]=[N-])C(O)C2F)c(=O)n1` (stereo partly shown) [Compound 5-28], the CC50 at 72 h in data set [2] was above 250 µM. The compound also had a CC50 at 44 h in data set [3] of at least 25 µM. Besides, the EC50 with VSVG/HIV-luc (NL4-3) came out at 6.7 ± 4.7 µM. For the same compound, the values for the IC50 in the data set on HBeAg and in the data set on HBsAg were 14.3 µM and 6.26 µM, respectively.

As for `COC(=O)CC[C@H](Nc1ccn([C@@H]2O[C@@](CO)(N=[N+]=[N-])C(O)C2F)c(=O)n1)C(=O)OC` (stereo partly shown) [Compound 7b], the results for the IC50 (in data set [1]; in the data set with HBeAg; in the data set with HBsAg) were 28 µM, 6.16 µM and 0.02 µM, respectively. Also, in data set [2], the CC50 at 72 h is above 1250 µM. Moreover, the CC50 at 44 h in data set [3] was at least 25 µM. The EC50 in the data set on VSVG/HIV-luc (NL4-3) is 0.7 ± 0.1 µM.

On to `COC(=O)[C@@H](Cc1cc2ccccc2[nH]1)Nc1ccn([C@@H]2O[C@@](CO)(N=[N+]=[N-])C(O)C2F)c(=O)n1` (stereo partly shown) [Compound 7c], for which the CC50 at 72 h in data set [2] was at least 280 µM. Besides, in data set [3], the CC50 at 44 h is at least 25 µM. Also, the EC50 in the data set on VSVG/HIV-luc (NL4-3) came out at 0.5 µM. In addition, the inhibition at 10 µM with VSVG/HIV-luc (NL4-3) (read-out: Inhibitory activity at 10 μM) came out at 38.8 ± 3.3%. Moreover, the results for the IC50 with HBeAg and in the data set on HBsAg were 0.32 µM and 0.2 µM, respectively.

Consider `[N-]=[N+]=N[C@]1(CO)O[C@@H](n2ccc(NCC(N)=O)nc2=O)C(F)C1O` (stereo partly shown) [Compound 7j], for which the CC50 at 72 h in data set [2] came out at 239 µM. This compound returned a CC50 at 44 h in data set [3] of at least 25 µM. Further, the EC50 with VSVG/HIV-luc (NL4-3) was determined as 10 ± 7 µM. Further, in the data set on HBeAg, the IC50 is 6.16 µM.

As to `COC(=O)C(C)Nc1ccn([C@@H]2O[C@@](CO)(N=[N+]=[N-])C(O)C2F)c(=O)n1` (stereo partly shown) [Compound 7m], in data set [2], the CC50 at 72 h was 311 µM. This compound also came in with a half-maximal cytotoxic concentration (CC50) at 44 h in data set [3] of at least 25 µM. For the same compound, the EC50 in the data set with VSVG/HIV-luc (NL4-3) is 10 ± 6.6 µM. The IC50 was determined as 21.2 µM in the data set on HBeAg and 1.89 µM with HBsAg.

In the case of `[N-]=[N+]=N[C@]1(CO)O[C@@H](n2ccc(NCC(=O)O)nc2=O)C(F)C1O` (stereo partly shown) [Compound 8a], the CC50 at 72 h in data set [2] is above 250 µM. The compound further yielded a CC50 at 44 h in data set [3] of at least 25 µM. The EC50 in the data set with VSVG/HIV-luc (NL4-3) was 5.1 ± 1.1 µM. The IC50 in the data set with HBeAg was determined as 16.7 µM; in the data set with HBsAg, 13.8 µM.

Consider `[N-]=[N+]=N[C@]1(CO)O[C@@H](n2ccc(N[C@@H](Cc3cc4ccccc4[nH]3)C(=O)O)nc2=O)C(F)C1O` (stereo partly shown) [Compound 8d], for which, in data set [2], the CC50 at 72 h is at least 25 µM. In data set [3], this compound had a CC50 at 44 h of at least 25 µM. Also, in the data set with VSVG/HIV-luc (NL4-3), the EC50 came out at 0.7 ± 0.1 µM. Moreover, the IC50 is 0.36 µM with HBeAg and 0.03 µM with HBsAg.

`COC(=O)C[C@H](Nc1ccn([C@@H]2O[C@@](CO)(N=[N+]=[N-])C(O)C2F)c(=O)n1)C(=O)OC` (stereo partly shown) [Compound 8e]: the CC50 at 72 h in data set [2] worked out at 231 µM. In data set [3], this compound gave a CC50 at 44 h of at least 25 µM. Further, in the data set with VSVG/HIV-luc (NL4-3), the EC50 was 12 ± 2.8 µM. For the same compound, the IC50 in the data set on HBeAg is 12.8 µM; with HBsAg it was 20.5 µM.

Take `COC(=O)[C@H](Cc1ccccc1)Nc1ccn([C@@H]2O[C@@](CO)(N=[N+]=[N-])C(O)C2F)c(=O)n1` (stereo partly shown) [Compound 8n]: the CC50 at 72 h in data set [2] was above 250 µM. This compound also showed a CC50 at 44 h in data set [3] of at least 25 µM. Also, the EC50 with VSVG/HIV-luc (NL4-3) was determined as 5.4 ± 3 µM. In addition, the IC50 in the data set with HBeAg turned out to be 4.41 µM.

By IC50 is commonly meant the point on the concentration scale where inhibition reaches its midpoint. What is called CC50 is the concentration giving 50% cytotoxicity.
